# Values of other authors in US6303141A, “Transdermally administrable medicament with ACE inhibitors” (Hexal AG, priority 1995, dated 2001).
# Conditions: in vivo
row,oral bioavailability,SMILES
1,28%,CCOC(=O)[C@H](CCc1ccccc1)N[C@H]1CCc2ccccc2N(CC(=O)O)C1=O [benazepril]
2,approximately 70%,C[C@H](CS)C(=O)N1CCC[C@H]1C(=O)O [captopril]
